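All cell lines were grown in 96-well plates and treated with compound for 48 hours. The concentration for 50% growth inhibition is given as GI50.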 Active and inactive are the calls of the source. Rule as the data show it: active = GI50 up to about 1.1 µM and inactive = higher.
Experiments:
Assay in all cases: NCI tumour cell line growth inhibition, 48 h
[1] = tested on: M14
[2] = tested on: BT-549
[3] = tested on: Hs-578T
[4] = tested on: DMS-273
[5] = tested on: DLD-1
[6] = tested on: RXF 631
[7] = tested on: HOP-18
[8] = tested on: LXFL 529
[9] = tested on: DMS-114

Row | SMILES | GI50 [1] | GI50 [2] | GI50 [3] | GI50 [4] | GI50 [5] | GI50 [6] | GI50 [7] | GI50 [8] | GI50 [9]
1 | O=C1c2ccccc2-c2nnc(-c3ccc([N+](=O)[O-])cc3)cc21 | > 10 µM (inactive) | > 10 µM (inactive) | > 10 µM (inactive) |  |  |  |  |  | 
2 | COc1cccc(C2CC(=O)c3cc(N4CCCC4)ccc3N2)c1 (stereo not given) | 0.0234 µM (active) | 0.0843 µM (active) | 0.01 µM (active) |  |  |  |  |  | 
3 | COc1cc(/C=C/C2=C(C#N)C(=O)OC2(C)C)ccc1O |  |  |  | > 100 µM (inactive) | 54 µM (inactive) | 93.1 µM (inactive) | > 100 µM (inactive) |  | 
4 | COC(=O)C1=C(O)C(C(=O)OC)[C@]2(O)[C@@H](C(=O)OC)[C@H]1C[C@@H](c1ccccc1)[C@@H]2C(=O)OC (stereo not given in full) | 10.8 µM (inactive) | 15.8 µM (inactive) | 17.2 µM (inactive) |  |  |  |  |  | 
5 | Cc1c(OCc2ccccc2)c(=O)ccn1CCc1c[nH]c2ccccc12 | 30 µM (inactive) | 44.6 µM (inactive) | 27.2 µM (inactive) |  |  |  |  |  | 
6 | O=C1C2Cc3ccccc3CN2C(=O)N1CN1CCCCC1 (stereo not given) | > 100 µM (inactive) |  |  | 50.8 µM (inactive) | > 100 µM (inactive) |  |  | > 100 µM (inactive) | > 100 µM (inactive)
7 | CC(=O)N1C(Nc2cnc3ccccc3c2)CCN1c1ccccc1 (stereo not given) | > 10 µM (inactive) | > 10 µM (inactive) | > 10 µM (inactive) |  |  |  |  |  | 
8 | O=C(O)c1ccccc1C(=O)c1ccco1 | > 100 µM (inactive) |  |  | > 100 µM (inactive) | > 100 µM (inactive) |  | > 100 µM (inactive) |  | > 100 µM (inactive)
9 | O=C(N/N=C/C=C/c1ccc([N+](=O)[O-])o1)c1ccc(Br)s1 | 20.4 µM (inactive) | 25.3 µM (inactive) | 6.73 µM (inactive) |  |  |  |  |  | 
10 | NC(=O)C1(c2ccccc2)Nc2ccccc2S1 (stereo not given) | > 100 µM (inactive) |  |  | > 100 µM (inactive) | > 100 µM (inactive) |  | > 100 µM (inactive) | > 100 µM (inactive) | > 100 µM (inactive)
11 | COc1ccc(Sc2ccccc2N)cc1 | 35.8 µM (inactive) |  |  | 30.6 µM (inactive) | 43.5 µM (inactive) |  | > 100 µM (inactive) | 41 µM (inactive) | 29.8 µM (inactive)
12 | Cc1c(N=NN(C)C)cc[n+]([O-])c1C |  |  |  | > 100 µM (inactive) | > 100 µM (inactive) |  | > 100 µM (inactive) |  | > 100 µM (inactive)
13 | COc1cc(C)cc2c1C(=O)C(NC(C)=O)=CC2=O | > 100 µM (inactive) | > 100 µM (inactive) | 55.1 µM (inactive) |  |  |  |  |  | 
14 | O=C1Oc2ccc([N+](=O)[O-])cc2N/C1=C\C(=O)c1ccccc1 | > 100 µM (inactive) | > 100 µM (inactive) | > 100 µM (inactive) |  |  |  |  |  | 
15 | COc1cc2c(cc1OC)-c1c(cnn1C1OC(COC(C)=O)C(OC(C)=O)C(OC(C)=O)C1OC(C)=O)CC2 (stereo not given) | > 100 µM (inactive) |  |  | > 100 µM (inactive) | > 100 µM (inactive) |  |  | > 85.7 µM (inactive) | 72.6 µM (inactive)
16 | Oc1ccccc1-c1nn2c(CCCCCCCCc3nnc4sc(-c5ccccc5O)nn34)nnc2s1 | 11.2 µM (inactive) | 24.2 µM (inactive) | 8.57 µM (inactive) |  |  |  |  |  | 
17 | C=C/C(C)=C/[C@H](C)C(=O)C[C@H](O)CC1CC(=O)NC(=O)C1 |  |  |  | 34.9 µM (inactive) | 44.2 µM (inactive) |  | 19 µM (inactive) |  | 38.3 µM (inactive)
18 | COC(=O)C1CCC(=O)N1/C(C)=N/NC(=O)Nc1ccc(Cl)c(Cl)c1 (stereo not given) | > 100 µM (inactive) |  |  | > 100 µM (inactive) | > 100 µM (inactive) |  |  | 28 µM (inactive) | > 100 µM (inactive)
19 | C=C1OC(=O)[C@]2([C@@H](/C=C/C)C=CC(=O)[C@H]2O)[C@@H]1O | > 100 µM (inactive) |  | > 100 µM (inactive) |  |  |  |  |  | 
20 | CN1CC=C(c2cccn2C)CC1 | > 100 µM (inactive) | > 100 µM (inactive) | > 100 µM (inactive) |  |  |  |  |  | 
21 | O=c1ccn(CC2(CO)CC(Cc3ccccc3)C2)c(=O)[nH]1 (stereo not given) |  | > 100 µM (inactive) | > 100 µM (inactive) |  |  |  |  |  | 
22 | CCOC(=O)C[C@@H]1C2(C=C[C@@]13CO3)OCC(C)(C)CO2 | > 100 µM (inactive) | > 100 µM (inactive) | > 100 µM (inactive) |  |  |  |  |  | 
23 | CCCCOP(C)(=O)C(NC(=O)OCC)(C(F)(F)F)C(F)(F)F (stereo not given) | > 100 µM (inactive) | > 100 µM (inactive) | > 100 µM (inactive) |  |  |  |  |  | 
24 | CC(=O)OC(C(=O)O)C(OC(C)=O)C(OC(C)=O)C(OC(C)=O)C(=O)O (stereo not given) | > 100 µM (inactive) | > 100 µM (inactive) | > 100 µM (inactive) |  |  |  |  |  | 
25 | Nc1nnc(N)n1NC(=O)C(=O)Nc1ccc([N+](=O)[O-])cc1 |  |  |  | > 100 µM (inactive) | > 100 µM (inactive) | > 100 µM (inactive) | > 100 µM (inactive) |  | > 100 µM (inactive)
26 | C#CC[C@@]12CC(=O)C[C@@H]1CCC1(C2)OCCO1.C#CC[C@]12CC(=O)CC[C@H]1CC(=O)C2 |  |  |  | > 100 µM (inactive) | > 100 µM (inactive) |  | 90.6 µM (inactive) |  | 

— ChEMBL document CHEMBL1201862, “PubChem BioAssay data set” (2004)
